From US10030020B2, “Spirocycle compounds and methods of making and using same” (Abide Therapeutics, Inc., priority 2016, dated 2018)

Tests used:
ABHD6 [1] = target: T1, ABHD6 (Mus musculus (Mouse), UniProt Q8R2Y0); experiment: In vitro competitive activity-based protein profiling (mouse brain membrane fraction or cell lysates), ABHD6 band; format: biochemical; details: mouse proteome; for inhibition at 1 µM: read-out: ABHD6 % Inh 1 μM (mouse); for IC50: competitive ABPP
Outline: (§1)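 Residual hydrolase activity was measured as gel band fluorescence after FP-Rh labelling (30 min, 37° C) of proteomes pretreated 30 min at 37° C with inhibitor.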

ABHD6 [2] = target: T1, ABHD6; experiment: Mouse brain proteomes from inhibitor treated mice (oral gavage, sacrificed 4 h after administration, ABPP analysis), ABHD6; format: in vivo, mouse (C57Bl/6J); details: 5 mg/kg oral gavage
Outline: (§2)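 Wild-type C57Bl/6J mice; p.o. gavage, vehicle e.g. PEG400/EtOH/PBS 7/2/1; 5 mg/kg. Brain harvested 4 h post-dose, proteome profiled by ABPP. Read-out: % inhibition.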

FAAH [3] = target: T2, FAAH (Mus musculus (Mouse), UniProt O08914); experiment: In vitro competitive activity-based protein profiling (mouse brain membrane fraction or cell lysates), FAAH band; format: biochemical; details: mouse proteome; for inhibition at 1 µM: read-out: FAAH % Inh 1 μM (mouse); for IC50: competitive ABPP
Outline: as §1

FAAH [4] = target: T2, FAAH; experiment: Mouse brain proteomes from inhibitor treated mice (oral gavage, sacrificed 4 h after administration, ABPP analysis), FAAH; format: in vivo, mouse (C57Bl/6J); details: 5 mg/kg oral gavage
Outline: as §2

MAGL [5] = target: T3, MAGL (Mus musculus (Mouse), UniProt O35678); experiment: In vitro competitive activity-based protein profiling (mouse brain membrane fraction or cell lysates), MAGL band; format: biochemical; details: mouse proteome; for inhibition at 1 µM: read-out: MAGL % Inh 1 μM (mouse); for IC50: competitive ABPP
Protocol: In Vitro Competitive Activity-Based Protein Profiling.
Proteomes (mouse brain membrane fraction or cell lysates) (50 μL, 1.0 mg/mL total protein concentration) were preincubated with varying concentrations of inhibitors at 37° C. After 30 min, FP—Rh (1.0 μL, 50 μM in DMSO) was added and the mixture was incubated for another 30 min at 37° C. Reactions were quenched with SDS loading buffer (50 μL-4×) and run on SDS-PAGE.

MAGL [6] = target: T3, MAGL; experiment: Mouse brain proteomes from inhibitor treated mice (oral gavage, sacrificed 4 h after administration, ABPP analysis); format: in vivo, mouse (C57Bl/6J); details: 5 mg/kg oral gavage
Outline: as §2

T3 sequence (O35678 whole entry): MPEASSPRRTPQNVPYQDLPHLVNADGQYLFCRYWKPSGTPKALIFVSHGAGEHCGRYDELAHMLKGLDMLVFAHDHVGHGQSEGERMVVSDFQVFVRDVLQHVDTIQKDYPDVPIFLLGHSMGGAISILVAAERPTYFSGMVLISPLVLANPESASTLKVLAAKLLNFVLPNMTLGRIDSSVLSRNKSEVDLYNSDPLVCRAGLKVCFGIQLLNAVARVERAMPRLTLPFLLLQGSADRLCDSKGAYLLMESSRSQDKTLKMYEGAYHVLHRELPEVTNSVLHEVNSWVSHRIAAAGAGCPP
T1 sequence (Q8R2Y0 whole entry): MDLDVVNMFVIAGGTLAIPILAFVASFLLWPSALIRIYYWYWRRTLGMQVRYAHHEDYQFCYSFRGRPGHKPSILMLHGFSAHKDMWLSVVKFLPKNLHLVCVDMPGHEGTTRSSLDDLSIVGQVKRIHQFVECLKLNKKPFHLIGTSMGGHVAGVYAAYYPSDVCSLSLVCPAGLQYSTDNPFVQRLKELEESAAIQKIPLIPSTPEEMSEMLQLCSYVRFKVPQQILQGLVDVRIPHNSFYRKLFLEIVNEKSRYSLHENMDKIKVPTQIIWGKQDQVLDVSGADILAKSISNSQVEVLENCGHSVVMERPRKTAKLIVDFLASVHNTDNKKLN
T2 sequence (O08914 whole entry): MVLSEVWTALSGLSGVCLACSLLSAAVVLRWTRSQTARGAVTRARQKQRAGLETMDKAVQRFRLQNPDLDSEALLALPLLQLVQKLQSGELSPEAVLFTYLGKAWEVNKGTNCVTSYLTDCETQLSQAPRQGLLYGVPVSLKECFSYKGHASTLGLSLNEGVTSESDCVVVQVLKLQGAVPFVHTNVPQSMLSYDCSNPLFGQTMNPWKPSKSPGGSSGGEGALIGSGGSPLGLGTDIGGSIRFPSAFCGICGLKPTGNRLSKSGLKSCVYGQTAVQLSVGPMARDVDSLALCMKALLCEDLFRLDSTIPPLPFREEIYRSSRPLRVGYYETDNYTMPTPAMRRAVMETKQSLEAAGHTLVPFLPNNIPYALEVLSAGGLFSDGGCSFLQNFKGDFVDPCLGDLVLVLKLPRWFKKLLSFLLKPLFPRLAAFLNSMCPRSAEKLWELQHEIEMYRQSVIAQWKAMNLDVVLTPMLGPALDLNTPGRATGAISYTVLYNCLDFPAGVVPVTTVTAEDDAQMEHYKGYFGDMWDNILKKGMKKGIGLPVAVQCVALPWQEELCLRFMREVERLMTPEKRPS

Row | SMILES | inhibition at 1 µM (ABHD6 [1]) [%] | IC50 (ABHD6 [1]) [nM] | ABHD6 % Inh 5 mg/kg (mouse) (ABHD6 [2]) | inhibition at 1 µM (FAAH [3]) [%] | IC50 (FAAH [3]) [nM] | FAAH % Inh 5 mg/kg (mouse) (FAAH [4]) | inhibition at 1 µM (MAGL [5]) [%] | IC50 (MAGL [5]) [nM] | MAGL % Inh 5 mg/kg (mouse) (MAGL [6])
1 | O=C(OC(C(F)(F)F)C(F)(F)F)N1CCC2(CCCN2Cc2ccc(Cl)cc2N2CCCCC2)CC1 [Example 74, 1,1,1,3,3,3-Hexafluoropropan-2-yl 1-(4-chloro-2-(piperidin-1-yl)benzyl)-1,8-diazaspiro[4.5]decane-8-carboxylate] | 25 to 75 | > 1000 | # (# is <25%) | < 25 | > 1000 | # (# is <25%) | > 75 | < 100 | ## (## is equal to or greater than 25% but less than 75%)
2 | O=C(OC(C(F)(F)F)C(F)(F)F)N1CCC2(CCCN2Cc2ccc(Cl)cc2N2CC3CCC(C2)O3)CC1 [Example 75, 1,1,1,3,3,3-Hexafluoropropan-2-yl 1-(2-(8-oxa-3-azabicyclo[3.2.1]octan-3-yl)-4-chlorobenzyl)-1,8-diazaspiro[4.5]decane-8-carboxylate] | < 25 | > 1000 | # (# is <25%) | < 25 | > 1000 | # (# is <25%) | > 75 | < 100 | ### (### is ≥75%)
3 | O=C(OC(C(F)(F)F)C(F)(F)F)N1CCC2(CCCN2Cc2ccc(Cl)cc2N2CCCC2)CC1 [Example 76, 1,1,1,3,3,3-Hexafluoropropan-2-yl 1-(4-chloro-2-(pyrrolidin-1-yl)benzyl)-1,8-diazaspiro[4.5]decane-8-carboxylate] | < 25 | > 1000 | # (# is <25%) | < 25 | > 1000 | # (# is <25%) | > 75 | < 100 | ### (### is ≥75%)
4 | O=C(OC(C(F)(F)F)C(F)(F)F)N1CCC2(CCCN2Cc2ccc(Cl)cc2N2CCOCC2)CC1 [Example 77, 1,1,1,3,3,3-Hexafluoropropan-2-yl 1-(4-chloro-2-morpholinobenzyl)-1,8-diazaspiro[4.5]decane-8-carboxylate] | < 25 | > 1000 | # (# is <25%) | < 25 | > 1000 | # (# is <25%) | > 75 | < 100 | ### (### is ≥75%)
5 | O=C(OC(C(F)(F)F)C(F)(F)F)N1CCC2(CCCN2Cc2ccc(C(F)(F)F)cc2N2CCCCC2)CC1 [Example 78, 1,1,1,3,3,3-Hexafluoropropan-2-yl 1-(2-(piperidin-1-yl)-4-(trifluoromethyl)benzyl)-1,8-diazaspiro[4.5]decane-8-carboxylate] | < 25 | > 1000 | # (# is <25%) | < 25 | > 1000 | # (# is <25%) | > 75 | < 100 | ## (## is equal to or greater than 25% but less than 75%)
6 | O=C(OC(C(F)(F)F)C(F)(F)F)N1CCC2(CCCN2Cc2cccc(N3CCOCC3)c2Cl)CC1 [Example 79, 1,1,1,3,3,3-Hexafluoropropan-2-yl 1-(2-chloro-3-morpholinobenzyl)-1,8-diazaspiro[4.5]decane-8-carboxylate] | < 25 | > 1000 | # (# is <25%) | < 25 | > 1000 | # (# is <25%) | > 75 | < 100 | ### (### is ≥75%)
7 | O=C(OC(C(F)(F)F)C(F)(F)F)N1CCC2(CCCN2Cc2cccc(N3CCCCC3)c2Cl)CC1 [Example 80, 1,1,1,3,3,3-Hexafluoropropan-2-yl 1-(2-chloro-3-(piperidin-1-yl)benzyl)-1,8-diazaspiro[4.5]decane-8-carboxylate] | < 25 | > 1000 | ## (## is equal to or greater than 25% but less than 75%) | < 25 | > 1000 | ## (## is equal to or greater than 25% but less than 75%) | > 75 | < 100 | ### (### is ≥75%)
8 | O=C(OC(C(F)(F)F)C(F)(F)F)N1CCC2(CCCN2Cc2cccc(N3CCCC3)c2Cl)CC1 [Example 81, 1,1,1,3,3,3-Hexafluoropropan-2-yl 1-(2-chloro-3-(pyrrolidin-1-yl)benzyl)-1,8-diazaspiro[4.5]decane-8-carboxylate] | < 25 | > 1000 | # (# is <25%) | < 25 | > 1000 | # (# is <25%) | > 75 | < 100 | ### (### is ≥75%)
9 | O=C(OC(C(F)(F)F)C(F)(F)F)N1CCC2(CCCN2Cc2cccc(N3CC4CCC(C3)O4)c2Cl)CC1 [Example 82, 1,1,1,3,3,3-Hexafluoropropan-2-yl 1-(3-(8-oxa-3-azabicyclo[3.2.1]octan-3-yl)-2-chlorobenzyl)-1,8-diazaspiro[4.5]decane-8-carboxylate] | < 25 | > 1000 | # (# is <25%) | < 25 | > 1000 | # (# is <25%) | > 75 | < 100 | ### (### is ≥75%)
10 | Cc1c(CN2CCCC23CCN(C(=O)OC(C(F)(F)F)C(F)(F)F)CC3)cccc1N1CCCCC1 [Example 84, 1,1,1,3,3,3-Hexafluoropropan-2-yl 1-(2-methyl-3-(piperidin-1-yl)benzyl)-1,8-diazaspiro[4.5]decane-8-carboxylate] | < 25 | > 1000 | # (# is <25%) | < 25 | > 1000 | # (# is <25%) | > 75 | 100 to 1000 | ### (### is ≥75%)
11 | Cc1c(CN2CCCC23CCN(C(=O)OC(C(F)(F)F)C(F)(F)F)CC3)cccc1N1CCCC1 [Example 85, 1,1,1,3,3,3-Hexafluoropropan-2-yl 1-(2-methyl-3-(pyrrolidin-1-yl)benzyl)-1,8-diazaspiro[4.5]decane-8-carboxylate] | < 25 | > 1000 | # (# is <25%) | < 25 | > 1000 | # (# is <25%) | > 75 | < 100 | ### (### is ≥75%)
12 | Cc1c(CN2CCCC23CCN(C(=O)OC(C(F)(F)F)C(F)(F)F)CC3)cccc1N1CC2CCC(C1)O2 [Example 86, 1,1,1,3,3,3-Hexafluoropropan-2-yl 1-(3-(8-oxa-3-azabicyclo[3.2.1]octan-3-yl)-2-methylbenzyl)-1,8-diazaspiro[4.5]decane-8-carboxylate] | < 25 | > 1000 | # (# is <25%) | < 25 | > 1000 | # (# is <25%) | > 75 | < 100 | ### (### is ≥75%)
